Reference: the NIST ThermoML archive (doi:10.1021/je030107c)

Columns and labels:
[1] = xn = mol fraction of the nth substance listed; conditions: 101.3 kPa, Liquid; for viscosity: Capillary tube (Ostwald / Ubbelohde) method; for speed of sound: Linear variable-path acoustic interferometer; for mass density: Pycnometric method
[2] = refractive index (Na D-line) (dimensionless); xn = mol fraction of the nth substance listed; conditions: 101.3 kPa, Liquid, Standard Abbe refractometry

C1COCCO1 [1,4-dioxane] + OCCO
Conditions	mass density, 298.15 K [kg/m3]	mass density, 303.15 K [kg/m3]	mass density, 308.15 K [kg/m3]	refractive index, 298.15 K	refractive index, 303.15 K	refractive index, 308.15 K	speed of sound, 298.15 K [m/s]	viscosity, 298.15 K [mPa·s]	viscosity, 303.15 K [mPa·s]	viscosity, 308.15 K [mPa·s]
[1], x1 = 0.1031	1100.6	1096.6	1092.8	–	–	–	1620	9.007	7.262	5.518
[1], x1 = 0.2072	1090.6	1086.4	1082.4	–	–	–	1577	6.285	5.149	4.013
[1], x1 = 0.3021	1082	1077.6	1073.1	–	–	–	1537	4.654	3.849	3.044
[1], x1 = 0.4246	1071.1	1066.5	1061.7	–	–	–	1485	3.177	2.68	2.181
[1], x1 = 0.5042	1064.5	1059.7	1054.7	–	–	–	1456	2.566	2.184	1.802
[1], x1 = 0.5986	1056.8	1051.7	1046.8	–	–	–	1426	2.012	1.728	1.444
[1], x1 = 0.6914	1049.6	1044.5	1039.5	–	–	–	1400	1.663	1.447	1.229
[1], x1 = 0.7906	1042.4	1037.1	1031.8	–	–	–	1381	1.388	1.226	1.063
[1], x1 = 0.8909	1035.2	1029.9	1024.5	–	–	–	1369	1.212	1.081	0.949
[1], x1 = 1	1027.6	1021.9	1016.2	–	–	–	1347	1.166	1.069	0.984
[2], x1 = 0.1031	–	–	–	1.4294	1.4279	1.4262	–	–	–	–
[2], x1 = 0.2072	–	–	–	1.4284	1.4268	1.425	–	–	–	–
[2], x1 = 0.3021	–	–	–	1.4275	1.4256	1.4236	–	–	–	–
[2], x1 = 0.4246	–	–	–	1.426	1.424	1.4219	–	–	–	–
[2], x1 = 0.5042	–	–	–	1.4248	1.4226	1.4204	–	–	–	–
[2], x1 = 0.5986	–	–	–	1.4238	1.4216	1.4193	–	–	–	–
[2], x1 = 0.6914	–	–	–	1.423	1.4207	1.4186	–	–	–	–
[2], x1 = 0.7906	–	–	–	1.422	1.4196	1.4172	–	–	–	–
[2], x1 = 0.8909	–	–	–	1.421	1.4187	1.4163	–	–	–	–
[2], x1 = 1	–	–	–	1.4201	1.417	1.4143	–	–	–	–
